Reference: US11629135B2 (JUBILANT PRODEL LLC, priority 2017, dated 2023)
Like-named read-outs stand apart in the source and are kept apart here.

Experiments:
[1] = test system: plasma proteins; test: Plasma protein binding by equilibrium dialysis; assay type: in vitro ADME, mouse; settings: plasma, equilibrium dialysis
Protocol: (§1) To evaluate the ability of compound to bind the plasma proteins, the most common approach of plasma protein binding using equilibrium dialysis was used. Compound was tested at a final concentration of 3 μM in mouse, rat, human or dog plasma. An aliquot of 150 μL plasma containing compound was added in first half (plasma side) of the well of 96-well micro-equilibrium dialysis device. An aliquot of 150 μL of 100 mM sodium phosphate buffer pH 7.4 was added in the second half (buffer side) of the well of 96-well HT equilibrium dialysis device. The plate containing plasma and buffer was equilibrated at 37±1° C. for 4.5 h, with constant shaking at 120 rpm on an orbital shaker. Samples were collected from respective halves after the completion of incubation time. The proteins were precipitated using organic solvents. The samples were subjected to centrifugation and the supernatants were analyzed analysis on LC-MS/MS.

[2] = Plasma protein binding by equilibrium dialysis; assay type: in vitro ADME, mouse; settings: pH 7.4; mouse plasma, 3 μM, equilibrium dialysis 4.5 h
Protocol: as §1

[3] = Metabolic stability in liver microsomes (mouse); assay type: in vitro ADME; settings: mice liver microsomes 0.5 mg/mL, compound 1 μM, NADPH, up to 30 min
Protocol: (§2) Metabolic Stability in Liver Microsomes
(§3) Procedure: Potassium phosphate buffer (66.7 mM, pH 7.4) containing mouse or rat or dog or monkey or human liver microsomes (0.5 mg/mL) was pre-incubated separately with compound (1 μM) and positive control (verapamil, 1 μM) in a 37° C. water bath for 5 min. The reactions were initiated by adding 20 μL of 10 mM NADPH. Reactions without NADPH (0 and 30 min) were also incubated to rule out non-NADPH metabolism or chemical instability in the incubation buffer. All reactions were terminated using 200 μL of ice-cold acetonitrile containing internal standard at 0, 5, 15 and 30 min. The vials were centrifuged at 3000 rpm for 15 min. The reaction mixtures (obtained from the above studies) were extracted, processed and analyzed by LC-MS [Shimadzu SIL LC series (Kyoto, Japan) was coupled to an API-4000 Mass Spectrometer (MDS Sciex, Toronto, Canada)] to monitor the disappearance of compound.

[4] = Intravenous and oral pharmacokinetics in mice; assay type: in vivo, Balb/c mice; settings: for Vd: iv, 2 mg/kg; for half-life: read-out: t1/2, β (converted)
Description: Pharmacokinetics Evaluation of Compound-45: Animal Experiments Details
Institutional Animal Ethical Committee (IAEC) of Jubilant Biosys (IAEC/JDC/2018/158) nominated by CPCSEA (Committee for the Purpose of Control and Supervision of Experiments on Animals) approved the mice pharmacokinetic experiments. Male Balb/c mice (˜6-8 weeks old with body weight range of 22-25 g) were procured from Vivo Biotech, Hyderabad, India. Animals were quarantined in Jubilant Biosys Animal House for a period of 7 days with a 12:12 h light:dark cycles, and prior study the animals were stratified as per body weight. Animals had free access to feed (Altromin Spezialfutter GmbH & Co. KG., Im Seelenkamp 20, D-32791, Lage, Germany) and water ad-libitum.
Intravenous and oral pharmacokinetics study was done at a dose of 2 and 10 mg/kg and at a dose volume of 10 mL/kg. Serial blood samples (200 μL) were collected from retro-orbital plexus at 0.083 (Only for IV), 0.15, 0.5, 1, 2, 4, 8, 10 (only for PO) and 24 h. Blood samples collected in tubes containing K2.EDTA as anticoagulant and centrifuged for 5 min at 14000 rpm in a refrigerated centrifuge (Biofuge, Heraeus, Germany) maintained at 4° C. for plasma separation.
Group I (PO) (22-25 g) received compound-45 at 10 mg/Kg (suspension formulation prepared using 0.5% methylcellulose and Tween-80; dose volume: 10 mL/Kg), whereas group II received IV (24-25 g) received compound-45 intravenously [5% DMSO, 5% Solutol:absolute alcohol (1:1, v/v) and 90% of normal saline; strength: 0.2 mg/mL; dose volume: 10 mL/Kg] at 2.0 mg/Kg dose. Post-dosing serial blood samples (200 μL), sparse sampling was done and at each time point three mice were used for blood sampling) were collected at regular intervals using heparinized capillaries through retro-orbital plexus into polypropylene tubes containing K2.EDTA solution as an anti-coagulant. Animals were allowed to eat feed 2 h post dose of compound-45. Blood concentration-time data of compound-45 was analyzed by non-compartmental method using Phoenix WinNonlin Version 7.0.

[5] = Metabolic stability in liver microsomes (rat); assay type: in vitro ADME; settings: rat liver microsomes 0.5 mg/mL, compound 1 μM, NADPH, up to 30 min
Protocol: as §2, §3

[6] = test system: Caco-2 human intestinal epithelial cells; test: Caco-2 permeability; assay type: in vitro ADME; settings: 5 μM, bi-directional, 60 min
Protocol: Procedure: Caco-2 human intestinal epithelial cells were plated in 24-Transwell® dual chamber plates (Millipore, Billerica, Mass., USA) (cell density of 80,000 cells/cm^2 on day-1). The permeability studies were conducted with the monolayers cultured for 21 to 22 days in culture. The integrity of each Caco-2 cell monolayer was certified by trans epithelial electrical resistance (TEER) test (pre-experiment) and by determining the permeability of reference compound i.e., Lucifer yellow. Caco-2 cell monolayers with TEER values greater than 500 Ωcm^2 were considered for experimentation. Digoxin (5 μM) was used as a positive control for P-gp substrate. The concentrations of compound used in the assay was 5 μM. HBSS Buffer was used as the medium for the transport assay and the final concentration of DMSO in spiking solution was 0.05%. The bi-directional permeability study was initiated by adding an appropriate volume of HBSS buffer containing compound to respective apical and basolateral chambers (n=3). An aliquot of sample (100 μL) was taken from both chambers at 0 and 60 min of the incubation period and to this equal volume of acetonitrile was added, mixed gently and centrifuged at 4000 rpm for 10 min. An aliquot of 100 μL was subsequently transferred to the auto-sampler and 10 μL was injected for analysis on LC-MS/MS.

[7] = male, mouse, plasma, Balb C mice, IV dose of 2 mg/Kg
[8] = male, mouse, plasma, Balb C mice, oral dose of 10 mg/Kg

stability and recovery in plasma [1]: good | fraction unbound at 4.5 h, 3 μM [2]: 0.039 | Metabolic stability in liver microsomes [3]: > 80% | Tlast ([4]; Balb C mice, IV dose of 2 mg/Kg): 8.00 h | Tlast ([4]; Balb C mice, oral dose of 10 mg/Kg): 24.0 h | Oral bioavailability (F %) ([4]; Balb C mice, oral dose of 10 mg/Kg, 10 mg/kg): 90.6% | Vd ([4]; male, Balb/c, mouse, plasma, Balb C mice, IV dose of 2 mg/Kg, read-out: Vd): 0.74 L/kg | Vd ([4]; male, Balb/c, mouse, plasma, Balb C mice, IV dose of 2 mg/Kg, read-out: Vdss): 1.2 L/kg | bioavailability ([4]; male, Balb/c, mouse, plasma, po, 10 mg/kg, Balb C mice, oral dose of 10 mg/Kg, read-out: Oral bioavailability (F %)): 91% | AUC(0-inf) [4, 7]: 4920 ng·h/mL | AUC(0-t) [4, 7]: 4480 ng·h/mL | Cmax [4, 7]: 2110 ng/mL | clearance [4, 7]: 6.77 mL/min/kg | C0 ([4]; male, mouse, plasma, Balb C mice, IV dose of 2 mg/Kg, extrapolated, calculated manually using initial 3 time points): 2130 ng/mL | half-life [4, 7]: 1.27 h | AUC(0-inf) [4, 8]: 21100 ng·h/mL | AUC(0-t) [4, 8]: 20300 ng·h/mL | Cmax [4, 8]: 4840 ng/mL | Tmax [4, 8]: 0.5 h | half-life [4, 8]: 6.32 h | clearance as share of hepatic blood flow (HBF) ([4]; mice, intravenous): 8 % hepatic blood flow | volume of distribution relative to total body water (TBW) ([4]; mice, intravenous): 40 times | Metabolic stability in liver microsomes [5]: > 80% | Caco-2 efflux [6]: high efflux | Caco-2 permeability [6]: medium permeable
Compound: COc1nc(OCc2cccc(-c3ccccc3)c2C)nc(OC)c1CN1CCCC[C@H]1C(=O)O [Compound 45, (S)-1-((4,6-dimethoxy-2-((2-methyl-[1,1′-biphenyl]-3-yl)methoxy)pyrimidin-5-yl)methyl)piperidine-2-carboxylic acid]
